“Also recorded” adds a separate entry of the source.

The target in one assay is T1, slc26a3 (Mus musculus, UniProt Q9WVC8).
T1 construct: host or cells: Fischer rat thyroid (FRT) cells expressing YFP, clonal line FRT-YFP-slc26a3
T1 sequence (Q9WVC8 1-757): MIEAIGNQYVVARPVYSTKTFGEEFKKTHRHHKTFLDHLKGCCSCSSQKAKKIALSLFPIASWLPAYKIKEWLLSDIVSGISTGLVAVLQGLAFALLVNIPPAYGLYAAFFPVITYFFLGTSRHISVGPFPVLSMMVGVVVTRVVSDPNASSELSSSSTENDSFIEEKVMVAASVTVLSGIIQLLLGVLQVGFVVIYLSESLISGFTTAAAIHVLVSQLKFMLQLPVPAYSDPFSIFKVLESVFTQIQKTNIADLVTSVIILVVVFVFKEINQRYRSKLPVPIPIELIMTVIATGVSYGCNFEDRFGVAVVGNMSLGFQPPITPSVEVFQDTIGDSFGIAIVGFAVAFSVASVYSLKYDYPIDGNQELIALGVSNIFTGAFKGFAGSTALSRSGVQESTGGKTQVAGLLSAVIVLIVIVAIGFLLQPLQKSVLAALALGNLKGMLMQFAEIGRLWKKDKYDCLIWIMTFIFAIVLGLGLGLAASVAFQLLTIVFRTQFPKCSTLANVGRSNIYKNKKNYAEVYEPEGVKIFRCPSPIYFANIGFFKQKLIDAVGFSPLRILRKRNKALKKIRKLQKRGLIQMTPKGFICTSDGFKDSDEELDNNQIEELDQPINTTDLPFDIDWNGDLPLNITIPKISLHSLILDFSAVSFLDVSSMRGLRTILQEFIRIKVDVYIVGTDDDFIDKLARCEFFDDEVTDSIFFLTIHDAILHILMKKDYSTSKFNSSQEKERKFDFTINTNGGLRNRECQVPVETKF
Put plainly: slc26a3-mediated Cl-/HCO3- exchange, BCECF cytoplasmic pH in slc26a3-expressing FRT cells. The class given is cell-based, murine. To be noted: increase in cytoplasmic pH, read-out: IC50 for inhibition of slc26a3-mediated Cl-/HCO3- exchange. The protocol:
Concentration-dependence measurements for inhibition of slc26a3-mediated exchange of Cl^- and HCO3^-, the physiologically relevant activity of slc26a3, was measured using slc26a3-expressing FRT cells labeled with BCECF as a cytoplasmic pH sensor. Labeled cells were initially incubated in a Cl^--containing HCO3^- buffered solution, and HCO3^- influx / Cl^- efflux with cytoplasmic alkalinization was produced by addition of a gluconate-containing HCO3^- buffered solution. […] Concentration-dependence measurements for inhibition of slc26a3-mediated Cl^-/SCN^- exchange gave an IC50 of ~0.3 µM (FIG. 4B).
YFP-based assays of CFTR, pendrin and TMEM16A were as described. HEK cells transfected to express YFP and SLC26A3, slc26a6 or slc26a9 were functionally assayed using a Cl^-/I^- exchange protocol. Assays of Cl^-/HCO3^- exchange were done using BCECF as an intracellular pH indicator as described for pendrin. Short-circuit current (ISC) measurements in well-differentiated HBE cell cultures were done using techniques known in the art.

The test system of assay [1] is ENaC, CFTR or CaCC activity in human bronchial epithelial (HBE) cells. Put plainly: Short-circuit current in well-differentiated HBE cells. The class given is cell-based. To be noted: 10 µM, pre-treatment 20 min; amiloride, forskolin, CFTRinh-172, ATP additions. An excerpt:
To investigate Compound A1 selectivity, transport assays were done on a panel of SLC26-family homologs, and other relevant epithelial ion transporters and channels. […] In separate studies, to investigate possible action of Compound A1 on multiple ion transporters and channels in a human epithelium, human bronchial epithelial (HBE) cells were studied by short-circuit current, with successive additions of amiloride (to block the epithelial sodium channel ENaC), forskolin, CFTRinh-172 (to block CFTR), and ATP (to activate the Ca^2+-activated chloride channel, CaCC) (FIG. 5C).
HEK293 cells transfected with pIRES-YFP-slc26a9 were plated in 96-well black-walled, clear-bottom tissue culture plates (Corning Life Sciences, Tewksbury, MA) after coating with FNC Coating Mix (AthenaES, Baltimore, MD). […] Assays of slc26a9-mediated anion exchange were done by initially recording YFP fluorescence prior to addition of 100 µL of NaI-substituted PBS to test wells, with the initial rate of Cl^-/I^- exchange deduced from fluorescence intensity by single exponential regression. […] To assay SLC26A3 function, HEK293 cells transduced with lentiviral particles generated from the pLVX-IRES-mCherry-SLC26A3 transfer vector were transfected to express YFP for Cl^-/I^- exchange assays as described above; red fluorescence images were acquired to confirm SLC26A3 expression in cells. […]

Turning to `Cc1c(CC(=O)O)c(=O)oc2c(C)c(OCc3cccc(Br)c3)ccc12` [Compound A1], on slc26a3, the IC50 is around 100 nM. Also, in assay [1], the “effect on short-circuit current responses” value is listed as “did not alter short-circuit current responses; also recorded: differences not significant”.
